Reference: patent USRE48461E1, “Modulation of androgen receptor expression” (Ionis Pharmaceuticals, Inc., priority 2012, dated 2021)

Experiments:
[1] = system: C4-2 cells; assay: C4-2 cell proliferation (complete or CSS+DHT medium); type: cell-based, human; conditions: 5 days; for Proliferation (% untreated control): C4-2 cells
Experimental: After a treatment period of 5 days in complete medium or CSS+1 nM DHT medium, the proliferative capacity of the cancer cells was measured with using CellTiter 96® AQueous One Solution or CellTiter-Glo® Cell Proliferation kit (Promega), following the manufacturer's instructions. […] The proliferative capacity of cells cultured in CSS medium without DHT is 17% of untreated control levels.

[2] = system: PSA mRNA; assay: PSA expression in C4-2B cells (Example 30); type: cell-based, human; conditions: 48 hrs
Experimental: Cells were plated at 1,000 cells per well. […] ISIS 549148 was included as a negative control. […] After an incubation period of 48 hrs, RNA levels of AR, PSA and TMPRSS2 were measured.
Cells were plated at 2,000 cells per well and cultured in CSS media with 1 nM DHT. […] ISIS 549148 was included as a negative control. […] After an incubation period of 48 hrs, RNA levels of AR, PSA and TMPRSS2 were measured. In the absence of DHT, AR expression in C4-2 cells was 188%, PSA expression was 43% and TMPRSS2 expression was 27% compared to the untreated control.

[3] = system: TMPRSS2 mRNA; assay: TMPRSS2 mRNA levels in LMR20 cells; type: cell-based, human; conditions: for TMPRSS2 mRNA levels (% baseline value) after treatment with DHT / TMPRSS2 mRNA levels (% baseline value) after treatment with R1881 / TMPRSS2 mRNA levels (% baseline value) of cells without AR agonist treatment: LMR20 cells; for TMPRSS2 mRNA levels (% baseline value) after treatment with DHT: DHT 10 nM 72 hrs; for TMPRSS2 mRNA levels (% baseline value) after treatment with R1881: R1881 10 nM 72 hrs; for TMPRSS2 mRNA levels (% baseline value) of cells without AR agonist treatment: no AR agonist
Experimental: LMR20 cells were plated at 1,500 cells per well in phenol red-free medium with CSS.

[4] = system: 22RV1 cells; assay: 22RV1 cell proliferation (Example 32); type: cell-based, human; conditions: 5 days; for Proliferation (% untreated control): 22RV1 cells, complete medium
Experimental: After a treatment period of 5 days in complete medium, the proliferative capacity of the cancer cells was measured with using CellTiter 96® AQueous One or CellTiter-Glo® Solution Cell Proliferation kit (Promega), following the manufacturer's instructions. […] Treatment with ISIS oligonucleotides in CSS+DHT medium reduced the proliferative capacity to a greater extent than treatment with MVD-3100. The proliferative capacity of cells cultured in CSS medium without DHT is 12% of untreated control levels.

[5] = system: 22RV1 cells; assay: 22RV1 cell proliferation with/without DHT (MTT); type: cell-based, human; conditions: RNAiMAX, 5 days
Experimental: 22RV1cells were plated at 1,500 cells per well. […] Separate sets of cells, also treated with each of the antisense oligonucleotides, were treated with DHT added on day 1 at a final concentration of 1 nM. After a treatment period of 5 days, the proliferative ability of the cancer cells was measured using the standard MTT assay. Results are presented in Table 69 as percent inhibition of proliferation, relative to non-treated cells.

[6] = system: full length AR mRNA; assay: Full-length AR RNA in VCaP cells (complete, CSS+DHT medium); type: cell-based, human; conditions: RNAiMax, 48 hrs
Experimental: Cells were plated at 10,000 cells per well. […] After an incubation period of 48 hrs, RNA levels of full length AR, the V7 variant, PSA and TMPRSS2 were measured.
After an incubation period of 48 hrs, RNA levels of full length AR, the V7 variant, PSA and TMPRSS2 were measured. The data is presented in Tables 108 expressed as percent expression of gene levels compared to the untreated control.
Cells were plated at 15,000 cells per well and cultured in CSS media for 16 hours. […] After 4 hrs, 1 nM DHT was added. […] After an incubation period of 48 hrs, RNA levels of AR, PSA and TMPRSS2 were measured.

[7] = system: MDA-MB-453 tumor; assay: Tumor volume in MDA-MB-453 breast cancer orthotopic model; type: in vivo, NSG mice; conditions: Study 2, MDA-MB-453 model, NSG mice, 50 mg/kg s.c. 5 days per week for 2 weeks

CNC(=O)c1ccc(N2C(=S)N(c3ccc(C#N)c(C(F)(F)F)c3)C(=O)C2(C)C)cc1F [MDV3100, 4-(3-(4-cyano-3-(trifluoromethyl)phenyl)-5,5-dimethyl-4-oxo-2-thioxoimidazolidin-1-yl)-2-fluoro-N-methylbenzamide, reference compound]
Proliferation (% untreated control) ([1]; CSS + DHT medium, 0.04 μM): 122 % untreated control
Proliferation (% untreated control) ([1]; CSS + DHT medium, 0.2 μM): 124 % untreated control
Proliferation (% untreated control) ([1]; CSS + DHT medium, 1 μM): 87 % untreated control
Proliferation (% untreated control) ([1]; CSS + DHT medium, 5.0 μM): 22 % untreated control
Proliferation (% untreated control) ([1]; complete medium, 0.04 μM): 105 % untreated control
Proliferation (% untreated control) ([1]; complete medium, 0.2 μM): 108 % untreated control
Proliferation (% untreated control) ([1]; complete medium, 1 μM): 71 % untreated control
Proliferation (% untreated control) ([1]; complete medium, 5.0 μM): 67 % untreated control
proliferation of C4-2 cells ([1]; complete medium or CSS+1 nM DHT): reduced proliferation of the cells in a dose dependent manner compared to the control
Percent inhibition of PSA expression ([2]; CSS + DHT medium, 0.04 μM): 0%
Percent inhibition of PSA expression ([2]; CSS + DHT medium, 0.2 μM): 0%
Percent inhibition of PSA expression ([2]; CSS + DHT medium, 1 μM): 37%
Percent inhibition of PSA expression ([2]; CSS + DHT medium, 5.0 μM): 45%
Percent inhibition of PSA expression ([2]; complete medium, 0.04 μM): 8%
Percent inhibition of PSA expression ([2]; complete medium, 0.2 μM): 27%
Percent inhibition of PSA expression ([2]; complete medium, 1 μM): 73%
Percent inhibition of PSA expression ([2]; complete medium, 5.0 μM): 88%
TMPRSS2 mRNA levels (% baseline value) after treatment with DHT ([3]; ASO 0.04 μM): 134 % baseline value
TMPRSS2 mRNA levels (% baseline value) after treatment with DHT ([3]; ASO 0.20 μM): 144 % baseline value
TMPRSS2 mRNA levels (% baseline value) after treatment with DHT ([3]; ASO 1.0 μM): 132 % baseline value
TMPRSS2 mRNA levels (% baseline value) after treatment with DHT ([3]; ASO 5.0 μM): 124 % baseline value
TMPRSS2 mRNA levels (% baseline value) after treatment with R1881 ([3]; ASO 0.20 μM): 125 % baseline value
TMPRSS2 mRNA levels (% baseline value) after treatment with R1881 ([3]; ASO 1.0 μM): 133 % baseline value
TMPRSS2 mRNA levels (% baseline value) after treatment with R1881 ([3]; ASO 5.0 μM): 139 % baseline value
TMPRSS2 mRNA levels (% baseline value) of cells without AR agonist treatment ([3]; ASO 0.04 μM): 101 % baseline value
TMPRSS2 mRNA levels (% baseline value) of cells without AR agonist treatment ([3]; ASO 0.20 μM): 119 % baseline value
TMPRSS2 mRNA levels (% baseline value) of cells without AR agonist treatment ([3]; ASO 1.0 μM): 119 % baseline value
TMPRSS2 mRNA levels (% baseline value) of cells without AR agonist treatment ([3]; ASO 5.0 μM): 141 % baseline value
TMPRSS2 mRNA levels in LMR20 cells ([3]; with or without DHT/R1881): did not reduce either PSA or TMPRSS2 mRNA levels
Proliferation (% untreated control) in 22RV1 cells treated with MDV-3100 ([4]; 0.04 μM): 87%
Proliferation (% untreated control) in 22RV1 cells treated with MDV-3100 ([4]; 0.2 μM): 83%
Proliferation (% untreated control) in 22RV1 cells treated with MDV-3100 ([4]; 1.0 μM): 81%
Proliferation (% untreated control) in 22RV1 cells treated with MDV-3100 ([4]; 5.0 μM): 74%
proliferation of 22RV1 cells [4]: reduced proliferation of the cells in a dose dependent compared to the control

GGCTACTACGCCGTCA (3-10-3 (S)-cEt gapmer, chemistry not fully specified) [ISIS 549148, reference compound]
Proliferation (% untreated control) ([1]; CSS + DHT medium, 0.04 μM): 102 % untreated control
Proliferation (% untreated control) ([1]; CSS + DHT medium, 0.2 μM): 82 % untreated control
Proliferation (% untreated control) ([1]; CSS + DHT medium, 1 μM): 82 % untreated control
Proliferation (% untreated control) ([1]; CSS + DHT medium, 5.0 μM): 91 % untreated control
Proliferation (% untreated control) ([1]; complete medium, 0.04 μM): 106 % untreated control
Proliferation (% untreated control) ([1]; complete medium, 0.2 μM): 112 % untreated control
Proliferation (% untreated control) ([1]; complete medium, 1 μM): 91 % untreated control
Proliferation (% untreated control) ([1]; complete medium, 5.0 μM): 94 % untreated control
Percent inhibition of 22RV1 cell proliferation ([5]; +DHT (1 nM), ASO 1.34 nM): 0%
Percent inhibition of 22RV1 cell proliferation ([5]; +DHT (1 nM), ASO 4.0 nM): 0%
Percent inhibition of 22RV1 cell proliferation ([5]; +DHT (1 nM), ASO 13.4 nM): 3%
Percent inhibition of 22RV1 cell proliferation ([5]; +DHT (1 nM), ASO 40.0 nM): 0%
Percent inhibition of 22RV1 cell proliferation ([5]; −DHT, ASO 1.34 nM): 0%
Percent inhibition of 22RV1 cell proliferation ([5]; −DHT, ASO 4.0 nM): 0%
Percent inhibition of 22RV1 cell proliferation ([5]; −DHT, ASO 13.4 nM): 4%
Percent inhibition of 22RV1 cell proliferation ([5]; −DHT, ASO 40.0 nM): 0%
Percent inhibition of full-length AR ([6]; CSS medium, 1.34 nM): 0%
Percent inhibition of full-length AR ([6]; CSS medium, 4.0 nM): 0%
Percent inhibition of full-length AR ([6]; CSS medium, 13.4 nM): 0%
Percent inhibition of full-length AR ([6]; CSS medium, 40 nM): 0%
Percent inhibition of full-length AR ([6]; complete medium, 1.34 nM): 0%
Percent inhibition of full-length AR ([6]; complete medium, 4.0 nM): 8%
Percent inhibition of full-length AR ([6]; complete medium, 13.4 nM): 5%
Percent inhibition of full-length AR ([6]; complete medium, 40 nM): 17%
Percent inhibition of PSA expression ([2]; CSS + DHT medium, 0.04 μM): 0%
Percent inhibition of PSA expression ([2]; CSS + DHT medium, 0.2 μM): 0%
Percent inhibition of PSA expression ([2]; CSS + DHT medium, 1 μM): 0%
Percent inhibition of PSA expression ([2]; CSS + DHT medium, 5.0 μM): 0%
Percent inhibition of PSA expression ([2]; complete medium, 0.04 μM): 3%
Percent inhibition of PSA expression ([2]; complete medium, 0.2 μM): 11%
Percent inhibition of PSA expression ([2]; complete medium, 1 μM): 18%
Percent inhibition of PSA expression ([2]; complete medium, 5.0 μM): 14%
Tumor volumes ([7]; Day 0): 148
Tumor volumes ([7]; Day 8): 303
Tumor volumes ([7]; Day 13): 312
Tumor volumes ([7]; Day 20): 365
Tumor volumes ([7]; Day 23): 413
Tumor volumes ([7]; Day 27): 490
Tumor volumes ([7]; Day 29): 550
Proliferation (% untreated control) ([4]; 1.34 nM): 97 % untreated control
Proliferation (% untreated control) ([4]; 4.0 nM): 97 % untreated control
Proliferation (% untreated control) ([4]; 13.4 nM): 101 % untreated control
Proliferation (% untreated control) ([4]; 40 nM): 83 % untreated control
